Reference: paper PMC9898036, “VIP152 is a selective CDK9 inhibitor with pre-clinical in vitro and in vivo efficacy in chronic lymphocytic leukemia” (Leukemia, 2022)
Read-outs that look alike come from different tables or passages of the source.

Tests used:
Assay in all cases: DiscoverX KINOMEscan kinase profiling (468 assays)
Type in all cases: binding
human kinome [1] = target: human kinome (Homo sapiens, UniProt Q99759); settings: MAP3K3; 100 nM; read-out: Percent Control
Outline: (§1)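 DNA-tagged kinases competed for immobilized biotinylated ligands on streptavidin magnetic beads, with bound kinase quantified by qPCR. VIP152 in DMSO was tested against a DMSO control.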

human kinome [2] = target: human kinome (Homo sapiens, UniProt Q86UE8); settings: kinase TLK2 (Entrez TLK2); compound concentration 1000 nM; read-out: Percent Control
Outline: as §1

human kinome [3] = target: human kinome (Homo sapiens, UniProt P36888, D835H); settings: FLT3(D835H); 100 nM; read-out: Percent Control
Outline: as §1

human kinome [4] = target: human kinome (Homo sapiens, UniProt Q13705); settings: ACVR2B; 100 nM; read-out: Percent Control
Outline: as §1

human kinome [5] = target: human kinome (Homo sapiens, UniProt P54760); settings: EPHB4; 100 nM; read-out: Percent Control
Outline: as §1

human kinome [6] = target: human kinome (Homo sapiens, UniProt P53355); settings: DAPK1; 100 nM; read-out: Percent Control
Outline: as §1

human kinome [7] = target: human kinome (Homo sapiens, UniProt Q13233); settings: MAP3K1; 100 nM; read-out: Percent Control
Outline: as §1

human kinome [8] = target: human kinome (Homo sapiens, UniProt Q9NY57); settings: kinase YANK2 (Entrez STK32B); compound concentration 1000 nM; read-out: Percent Control
Sequence of human kinome (Homo sapiens, UniProt Q9NY57) (Q9NY57 whole entry): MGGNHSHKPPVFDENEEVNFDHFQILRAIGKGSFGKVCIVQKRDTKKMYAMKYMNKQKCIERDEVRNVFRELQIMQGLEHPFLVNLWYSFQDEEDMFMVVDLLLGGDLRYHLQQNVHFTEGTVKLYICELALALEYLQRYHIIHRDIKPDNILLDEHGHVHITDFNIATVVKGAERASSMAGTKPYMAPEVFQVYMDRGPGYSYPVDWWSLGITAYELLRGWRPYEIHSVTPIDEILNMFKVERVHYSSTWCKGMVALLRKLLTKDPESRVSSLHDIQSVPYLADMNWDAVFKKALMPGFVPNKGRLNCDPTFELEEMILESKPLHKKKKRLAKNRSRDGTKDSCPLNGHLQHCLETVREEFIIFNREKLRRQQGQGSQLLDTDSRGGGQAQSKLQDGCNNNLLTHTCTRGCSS
Outline: as §1

human kinome [9] = target: human kinome (Homo sapiens, UniProt P42679); settings: CTK (Entrez MATK); 100 nM; read-out: Percent Control
Outline: as §1

human kinome [10] = target: human kinome (Homo sapiens, UniProt Q9BUB5); settings: MKNK1; 100 nM; read-out: Percent Control
Outline: as §1

human kinome [11] = target: human kinome (Homo sapiens, UniProt Q9UKE5); settings: kinase TNIK (Entrez TNIK); compound concentration 1000 nM; read-out: Percent Control
Outline: as §1

human kinome [12] = target: human kinome (Homo sapiens, UniProt Q86V86); settings: read-out: Percent Control
Outline: as §1

human kinome [13] = target: human kinome (Homo sapiens, UniProt P41743); settings: read-out: Percent Control
Sequence of human kinome (Homo sapiens, UniProt P41743) (P41743 whole entry): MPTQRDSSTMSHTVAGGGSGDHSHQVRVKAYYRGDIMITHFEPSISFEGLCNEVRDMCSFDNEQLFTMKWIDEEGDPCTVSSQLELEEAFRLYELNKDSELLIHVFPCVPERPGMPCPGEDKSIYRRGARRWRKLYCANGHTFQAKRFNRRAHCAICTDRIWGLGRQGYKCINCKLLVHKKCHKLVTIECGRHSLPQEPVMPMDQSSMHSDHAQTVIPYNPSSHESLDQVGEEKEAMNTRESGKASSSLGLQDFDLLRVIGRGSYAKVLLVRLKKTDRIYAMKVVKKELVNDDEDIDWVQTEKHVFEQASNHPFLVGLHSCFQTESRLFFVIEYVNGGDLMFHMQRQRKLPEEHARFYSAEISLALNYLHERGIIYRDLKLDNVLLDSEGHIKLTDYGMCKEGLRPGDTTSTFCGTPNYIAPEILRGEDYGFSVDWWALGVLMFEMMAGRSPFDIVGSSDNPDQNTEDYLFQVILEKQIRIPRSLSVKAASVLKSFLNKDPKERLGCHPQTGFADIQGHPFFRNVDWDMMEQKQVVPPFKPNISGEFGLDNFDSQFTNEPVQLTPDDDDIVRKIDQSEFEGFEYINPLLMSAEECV
Outline: as §1

human kinome [14] = target: human kinome (Homo sapiens, UniProt P49336); settings: CDK8; 100 nM; read-out: Percent Control
Sequence of human kinome (Homo sapiens, UniProt P49336) (P49336 whole entry): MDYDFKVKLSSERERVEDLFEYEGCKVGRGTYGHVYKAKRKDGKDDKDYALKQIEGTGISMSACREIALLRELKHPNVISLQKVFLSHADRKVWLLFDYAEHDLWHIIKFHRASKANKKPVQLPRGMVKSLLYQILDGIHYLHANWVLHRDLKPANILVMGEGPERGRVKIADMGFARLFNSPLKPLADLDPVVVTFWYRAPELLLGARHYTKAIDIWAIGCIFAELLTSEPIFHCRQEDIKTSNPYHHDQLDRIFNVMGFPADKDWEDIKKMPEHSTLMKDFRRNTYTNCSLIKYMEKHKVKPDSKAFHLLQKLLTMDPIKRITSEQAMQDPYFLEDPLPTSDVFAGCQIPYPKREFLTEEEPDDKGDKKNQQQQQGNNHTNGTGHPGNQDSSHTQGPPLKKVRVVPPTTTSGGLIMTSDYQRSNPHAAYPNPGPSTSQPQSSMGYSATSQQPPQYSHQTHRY
Outline: as §1

human kinome [15] = target: human kinome (Homo sapiens, UniProt P51813); settings: BMX; 100 nM; read-out: Percent Control
Outline: as §1

human kinome [16] = target: human kinome (Homo sapiens, UniProt Q9UK32); settings: compound concentration 1000 nM, read-out: Percent Control
Sequence of human kinome (Homo sapiens, UniProt Q9UK32) (Q9UK32 whole entry): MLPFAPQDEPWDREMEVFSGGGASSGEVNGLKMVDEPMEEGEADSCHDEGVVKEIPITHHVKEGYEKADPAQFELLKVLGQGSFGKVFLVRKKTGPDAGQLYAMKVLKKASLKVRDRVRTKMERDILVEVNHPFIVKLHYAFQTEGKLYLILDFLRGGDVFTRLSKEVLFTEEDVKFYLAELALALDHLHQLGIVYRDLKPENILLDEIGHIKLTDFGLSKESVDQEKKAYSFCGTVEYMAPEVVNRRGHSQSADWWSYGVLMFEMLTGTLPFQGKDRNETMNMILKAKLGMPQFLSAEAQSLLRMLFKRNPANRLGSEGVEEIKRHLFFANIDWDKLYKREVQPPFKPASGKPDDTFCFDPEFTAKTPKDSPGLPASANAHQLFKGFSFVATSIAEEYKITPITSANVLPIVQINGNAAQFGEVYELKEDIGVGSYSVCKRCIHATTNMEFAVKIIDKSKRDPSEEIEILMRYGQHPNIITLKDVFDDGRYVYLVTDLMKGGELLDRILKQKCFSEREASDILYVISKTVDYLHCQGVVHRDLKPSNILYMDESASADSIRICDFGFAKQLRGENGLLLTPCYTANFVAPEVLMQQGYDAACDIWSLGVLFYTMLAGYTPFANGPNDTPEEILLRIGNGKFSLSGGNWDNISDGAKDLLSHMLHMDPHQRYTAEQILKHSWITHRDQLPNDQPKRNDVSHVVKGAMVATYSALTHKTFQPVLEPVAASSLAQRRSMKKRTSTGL
Outline: as §1

human kinome [17] = target: human kinome (Homo sapiens, UniProt P78362); settings: kinase SRPK2 (Entrez SRPK2); compound concentration 1000 nM; read-out: Percent Control
Outline: as §1

human kinome [18] = target: human kinome (Homo sapiens, UniProt Q13470); settings: kinase TNK1 (Entrez TNK1); compound concentration 1000 nM; read-out: Percent Control
Outline: as §1

human kinome [19] = target: human kinome (Homo sapiens, UniProt P10721, D816V); settings: KIT(D816V); 100 nM; read-out: Percent Control
Outline: as §1

human kinome [20] = target: human kinome (Homo sapiens, UniProt Q9NRH2); settings: kinase SNRK (Entrez SNRK); compound concentration 1000 nM; read-out: Percent Control
Outline: as §1

human kinome [21] = target: human kinome (Homo sapiens, UniProt Q7KZI7); settings: MARK2; 100 nM; read-out: Percent Control
Sequence of human kinome (Homo sapiens, UniProt Q7KZI7) (Q7KZI7 whole entry): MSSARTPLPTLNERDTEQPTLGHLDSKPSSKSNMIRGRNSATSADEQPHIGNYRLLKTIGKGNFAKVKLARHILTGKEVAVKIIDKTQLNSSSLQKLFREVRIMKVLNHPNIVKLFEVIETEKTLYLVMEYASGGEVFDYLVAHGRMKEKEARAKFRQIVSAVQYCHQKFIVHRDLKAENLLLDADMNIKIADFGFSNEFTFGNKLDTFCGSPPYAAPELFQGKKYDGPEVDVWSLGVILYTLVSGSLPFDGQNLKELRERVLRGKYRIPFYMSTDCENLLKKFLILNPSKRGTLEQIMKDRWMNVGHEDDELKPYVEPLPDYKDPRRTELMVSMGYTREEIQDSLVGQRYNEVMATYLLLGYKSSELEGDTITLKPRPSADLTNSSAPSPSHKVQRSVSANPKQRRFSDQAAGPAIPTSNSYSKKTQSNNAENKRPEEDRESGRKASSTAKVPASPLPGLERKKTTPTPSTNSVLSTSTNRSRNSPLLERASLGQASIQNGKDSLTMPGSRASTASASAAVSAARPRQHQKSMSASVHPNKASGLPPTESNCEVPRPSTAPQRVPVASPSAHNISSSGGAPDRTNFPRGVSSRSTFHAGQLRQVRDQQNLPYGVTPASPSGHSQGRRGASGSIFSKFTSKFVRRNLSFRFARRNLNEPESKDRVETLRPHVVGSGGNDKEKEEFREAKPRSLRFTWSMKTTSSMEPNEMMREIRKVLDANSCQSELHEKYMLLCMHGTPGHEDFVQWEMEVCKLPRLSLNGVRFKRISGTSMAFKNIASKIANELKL
Outline: as §1

human kinome [22] = target: human kinome (Homo sapiens, UniProt O43283); settings: LZK (Entrez MAP3K13); 100 nM; read-out: Percent Control
Outline: as §1

human kinome [23] = target: human kinome (Homo sapiens, UniProt P54753); settings: EPHB3; 100 nM; read-out: Percent Control
Outline: as §1

human kinome [24] = target: human kinome (Homo sapiens, UniProt Q15831); settings: LKB1 (Entrez STK11); 100 nM; read-out: Percent Control
Outline: as §1

human kinome [25] = target: human kinome (Homo sapiens, UniProt Q9Y463); settings: DYRK1B; 100 nM; read-out: Percent Control
Outline: as §1

human kinome [26] = target: human kinome (Homo sapiens, UniProt Q9NSY1); settings: BIKE (Entrez BMP2K); 100 nM; read-out: Percent Control
Outline: as §1

human kinome [27] = target: human kinome (Homo sapiens, UniProt P07333); settings: 100 nM, read-out: Percent Control
Sequence of human kinome (Homo sapiens, UniProt P07333) (P07333 20-972): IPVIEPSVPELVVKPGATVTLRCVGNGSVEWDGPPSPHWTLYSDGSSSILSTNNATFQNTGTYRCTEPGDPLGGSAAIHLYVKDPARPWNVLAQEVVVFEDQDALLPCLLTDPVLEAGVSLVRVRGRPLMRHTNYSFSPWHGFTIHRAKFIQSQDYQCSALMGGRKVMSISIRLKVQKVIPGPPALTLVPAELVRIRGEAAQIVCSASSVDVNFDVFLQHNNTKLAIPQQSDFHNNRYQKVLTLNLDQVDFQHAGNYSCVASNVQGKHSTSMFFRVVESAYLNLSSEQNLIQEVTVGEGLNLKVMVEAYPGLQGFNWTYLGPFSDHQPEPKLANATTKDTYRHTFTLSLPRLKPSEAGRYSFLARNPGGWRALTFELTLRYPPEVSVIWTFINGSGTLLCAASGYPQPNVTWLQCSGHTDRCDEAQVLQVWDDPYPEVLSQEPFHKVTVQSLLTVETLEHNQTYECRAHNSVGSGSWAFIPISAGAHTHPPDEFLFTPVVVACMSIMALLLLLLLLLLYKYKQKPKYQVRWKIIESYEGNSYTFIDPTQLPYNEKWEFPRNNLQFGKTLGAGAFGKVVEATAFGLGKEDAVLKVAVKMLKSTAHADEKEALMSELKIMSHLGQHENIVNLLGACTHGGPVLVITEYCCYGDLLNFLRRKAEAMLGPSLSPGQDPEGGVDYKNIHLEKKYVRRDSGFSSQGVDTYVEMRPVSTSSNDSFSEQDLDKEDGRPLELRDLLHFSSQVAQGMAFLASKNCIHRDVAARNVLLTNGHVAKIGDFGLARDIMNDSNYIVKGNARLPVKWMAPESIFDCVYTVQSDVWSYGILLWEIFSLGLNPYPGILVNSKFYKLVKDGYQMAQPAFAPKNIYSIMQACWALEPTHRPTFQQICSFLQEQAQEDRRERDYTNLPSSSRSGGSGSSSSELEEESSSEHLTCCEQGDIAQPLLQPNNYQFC
Outline: as §1

human kinome [28] = target: human kinome (Homo sapiens, UniProt P07949, V804M); settings: kinase RET(V804M) (Entrez RET); compound concentration 1000 nM; read-out: Percent Control
Outline: as §1

human kinome [29] = target: human kinome (Homo sapiens, UniProt Q9UM73, L1196M); settings: ALK(L1196M); 100 nM; read-out: Percent Control
Outline: as §1

human kinome [30] = target: human kinome (Homo sapiens, UniProt Q9P289); settings: MST4; 100 nM; read-out: Percent Control
Sequence of human kinome (Homo sapiens, UniProt Q9P289) (Q9P289 whole entry): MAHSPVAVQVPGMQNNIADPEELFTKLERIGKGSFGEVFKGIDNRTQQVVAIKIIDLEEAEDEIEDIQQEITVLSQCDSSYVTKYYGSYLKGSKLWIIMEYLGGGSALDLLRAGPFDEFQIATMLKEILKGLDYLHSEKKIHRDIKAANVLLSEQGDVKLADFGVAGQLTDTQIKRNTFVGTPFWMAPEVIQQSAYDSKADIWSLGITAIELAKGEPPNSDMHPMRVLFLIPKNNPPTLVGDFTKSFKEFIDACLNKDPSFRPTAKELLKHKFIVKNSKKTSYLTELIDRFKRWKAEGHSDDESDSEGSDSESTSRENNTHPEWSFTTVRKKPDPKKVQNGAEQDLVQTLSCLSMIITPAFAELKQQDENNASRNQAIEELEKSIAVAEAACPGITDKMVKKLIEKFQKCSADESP
Outline: as §1

COc1cc(F)ccc1-c1cc(Nc2cc(CS(C)(=N)=O)ccn2)ncc1F (stereo not shown) [VIP152]
remaining binding at 0.1 µM (human kinome [1]): 100% | remaining binding at 1 µM (human kinome [2]): 98% | remaining binding at 0.1 µM (human kinome [3]): 100% | remaining binding at 0.1 µM (human kinome [4]): 89% | remaining binding at 0.1 µM (human kinome [5]): 100% | remaining binding at 0.1 µM (human kinome [6]): 100% | remaining binding at 0.1 µM (human kinome [7]): 100% | remaining binding at 1 µM (human kinome [8]): 98% | remaining binding at 0.1 µM (human kinome [9]): 95% | remaining binding at 0.1 µM (human kinome [10]): 94% | remaining binding at 1 µM (human kinome [11]): 32% | remaining binding at 0.1 µM (human kinome [12]; PIM3, 100 nM): 100% | remaining binding at 1 µM (human kinome [12]; kinase PIM3 (Entrez PIM3), compound concentration 1000 nM): 100% | remaining binding at 0.1 µM (human kinome [13]; PRKCI, 100 nM): 90% | remaining binding at 1 µM (human kinome [13]; kinase PRKCI (Entrez PRKCI), compound concentration 1000 nM): 96% | remaining binding at 0.1 µM (human kinome [14]): 100% | remaining binding at 0.1 µM (human kinome [15]): 100% | remaining binding at 1 µM (human kinome [16]; kinase RSK4(Kin.Dom.1-N-terminal) (Entrez RPS6KA6)): 94% | remaining binding at 1 µM (human kinome [16]; kinase RSK4(Kin.Dom.2-C-terminal) (Entrez RPS6KA6)): 89% | remaining binding at 1 µM (human kinome [17]): 89% | remaining binding at 1 µM (human kinome [18]): 82% | remaining binding at 0.1 µM (human kinome [19]): 100% | remaining binding at 1 µM (human kinome [20]): 90% | remaining binding at 0.1 µM (human kinome [21]): 100% | remaining binding at 0.1 µM (human kinome [22]): 100% | remaining binding at 0.1 µM (human kinome [23]): 100% | remaining binding at 0.1 µM (human kinome [24]): 100% | remaining binding at 0.1 µM (human kinome [25]): 100% | remaining binding at 0.1 µM (human kinome [26]): 100% | remaining binding at 0.1 µM (human kinome [27]; CSF1R-autoinhibited): 95% | remaining binding at 0.1 µM (human kinome [27]; CSF1R): 100% | remaining binding at 1 µM (human kinome [28]): 92% | remaining binding at 0.1 µM (human kinome [29]): 100% | remaining binding at 0.1 µM (human kinome [30]): 100%
